Assays:
Type in all cases: in vivo
kochia (Bassia scoparia) [1] = assay: Test A postemergence, kochia; conditions: Postemergence, 0 to 100 scale (0 no effect, 100 complete control); for Plant response rating, Kochia: 125 g ai/ha; for Kochia plant response rating: 500 g ai/ha, visual injury vs untreated controls after approx. 10 days
Outline: (§1)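 Test chemicals, formulated in a non-phytotoxic solvent mixture with surfactant, were sprayed postemergence on plants 2 to 10 cm tall at the one- to two-leaf stage. Preemergence treatment was a directed soil spray onto freshly seeded pots. Both used a loam soil and sand blend.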

corn (Zea mays) = assay: Test A postemergence, corn; conditions: Postemergence, 0 to 100 scale (0 no effect, 100 complete control); for Plant response rating, Corn: 125 g ai/ha; for Corn plant response rating: 500 g ai/ha, visual injury vs untreated controls after approx. 10 days
Outline: as §1

[2] = tested on: ragweed (common ragweed, Ambrosia artemisiifolia); assay: Test A postemergence, ragweed; conditions: Postemergence, 0 to 100 scale (0 no effect, 100 complete control); for Plant response rating, Ragweed: 125 g ai/ha; for Ragweed plant response rating: 500 g ai/ha, visual injury vs untreated controls after approx. 10 days
Outline: as §1

[3] = tested on: pigweed (Amaranthus retroflexus); assay: Test A preemergence, pigweed; conditions: for Pigweed plant response rating: visual injury on 0 to 100 scale (0 no effect, 100 complete control), approximately 10 days; for Plant response rating, Pigweed: 0 to 100 scale (0 no effect, 100 complete control)
Outline: as §1

[4] = tested on: Ryegrass, Italian (Italian ryegrass, Lolium multiflorum); assay: Test A preemergence, Ryegrass, Italian; conditions: Preemergence; for Ryegrass, Italian plant response rating: visual injury on 0 to 100 scale (0 no effect, 100 complete control), approximately 10 days; for Plant response rating, Ryegrass, Italian: 0 to 100 scale (0 no effect, 100 complete control)
Outline: as §1

[5] = tested on: barnyardgrass (Echinochloa crus-galli); assay: Test A preemergence, barnyardgrass; conditions: Preemergence; for Barnyardgrass plant response rating: visual injury on 0 to 100 scale (0 no effect, 100 complete control), approximately 10 days; for Plant response rating, Barnyardgrass: 0 to 100 scale (0 no effect, 100 complete control)
Outline: as §1

[6] = tested on: blackgrass (Alopecurus myosuroides); assay: Test A postemergence, blackgrass; conditions: Postemergence, 0 to 100 scale (0 no effect, 100 complete control); for Plant response rating, Blackgrass: 125 g ai/ha; for Blackgrass plant response rating: 500 g ai/ha, visual injury vs untreated controls after approx. 10 days
Outline: as §1

[7] = tested on: ragweed (common ragweed, Ambrosia artemisiifolia); assay: Test A preemergence, ragweed; conditions: Preemergence; for Ragweed plant response rating: visual injury on 0 to 100 scale (0 no effect, 100 complete control), approximately 10 days; for Plant response rating, Ragweed: 0 to 100 scale (0 no effect, 100 complete control)
Outline: as §1

[8] = tested on: Foxtail, Giant (giant foxtail, Setaria faberi); assay: Test A postemergence, Foxtail, Giant; conditions: Postemergence, 0 to 100 scale (0 no effect, 100 complete control); for Plant response rating, Foxtail, Giant: 125 g ai/ha; for Foxtail, Giant plant response rating: 500 g ai/ha, visual injury vs untreated controls after approx. 10 days
Outline: as §1

kochia (Bassia scoparia) [9] = assay: Test A preemergence, kochia; conditions: Preemergence; for Kochia plant response rating: visual injury on 0 to 100 scale (0 no effect, 100 complete control), approximately 10 days; for Plant response rating, Kochia: 0 to 100 scale (0 no effect, 100 complete control)
Outline: as §1

[10] = tested on: Ryegrass, Italian (Italian ryegrass, Lolium multiflorum); assay: Test A postemergence, Ryegrass, Italian; conditions: Postemergence, 0 to 100 scale (0 no effect, 100 complete control); for Plant response rating, Ryegrass, Italian: 125 g ai/ha; for Ryegrass, Italian plant response rating: 500 g ai/ha, visual injury vs untreated controls after approx. 10 days
Outline: as §1

[11] = tested on: barnyardgrass (Echinochloa crus-galli); assay: Test A postemergence, barnyardgrass; conditions: Postemergence, 0 to 100 scale (0 no effect, 100 complete control); for Plant response rating, Barnyardgrass: 125 g ai/ha; for Barnyardgrass plant response rating: 500 g ai/ha, visual injury vs untreated controls after approx. 10 days
Outline: as §1

[12] = tested on: pigweed (Amaranthus retroflexus); assay: Test A postemergence, pigweed; conditions: Postemergence, 0 to 100 scale (0 no effect, 100 complete control); for Plant response rating, Pigweed: 125 g ai/ha; for Pigweed plant response rating: 500 g ai/ha, visual injury vs untreated controls after approx. 10 days
Outline: as §1

[13] = tested on: wheat (Triticum aestivum); assay: Test A postemergence, wheat; conditions: Postemergence, 0 to 100 scale (0 no effect, 100 complete control); for Plant response rating, Wheat: 125 g ai/ha; for Wheat plant response rating: 500 g ai/ha, visual injury vs untreated controls after approx. 10 days
Outline: as §1

[14] = tested on: Foxtail, Giant (giant foxtail, Setaria faberi); assay: Test A preemergence, Foxtail, Giant; conditions: Preemergence; for Foxtail, Giant plant response rating: visual injury on 0 to 100 scale (0 no effect, 100 complete control), approximately 10 days; for Plant response rating, Foxtail, Giant: 0 to 100 scale (0 no effect, 100 complete control)
Outline: as §1

[15] = tested on: galium (catchweed bedstraw, Galium aparine); assay: Test A postemergence, galium; conditions: Postemergence, 0 to 100 scale (0 no effect, 100 complete control); for Plant response rating, Galium: 125 g ai/ha; for Galium plant response rating: 500 g ai/ha, visual injury vs untreated controls after approx. 10 days
Outline: as §1

[16] = 125 g ai/ha, visual injury, approx. 10 days

SMILES	Kochia plant response rating (kochia (Bassia scoparia) [1])	Corn plant response rating (corn (Zea mays))	Plant response rating, Ragweed [2]	Ragweed plant response rating [2]	Plant response rating, Pigweed ([3]; 500 g ai/ha)	Plant response rating, Ryegrass, Italian ([4]; 500 g ai/ha)	Plant response rating, Barnyardgrass ([5]; 500 g ai/ha)	Blackgrass plant response rating [6]	Plant response rating, Ragweed ([7]; 500 g ai/ha)	Foxtail, Giant plant response rating [8]	Plant response rating, Kochia (kochia (Bassia scoparia) [9]; 500 g ai/ha)	Plant response rating, Ryegrass, Italian [10]	Ryegrass, Italian plant response rating [10]	Barnyardgrass plant response rating [11]	Plant response rating, Pigweed [12]	Pigweed plant response rating [12]	Plant response rating, Wheat [13]	Wheat plant response rating [13]	Plant response rating, Foxtail, Giant ([14]; 500 g ai/ha)	Galium plant response rating [15]	other results
Cc1cc(Cl)c(C2=NOC3(CCCC3)C2)cc1N(S(=O)(=O)C(F)(F)F)S(=O)(=O)C(F)(F)F [Compound 186]	40	30	40	60	80	100	100	20	50	20	70	0	20	20	0	50	0	30	100	80	Plant response rating, Kochia (kochia (Bassia scoparia) [1]): 10; Plant response rating, Corn (corn (Zea mays)): 0; Pigweed plant response rating ([3]; 125 g ai/ha): 20; Ryegrass, Italian plant response rating ([4]; 125 g ai/ha): 60; Barnyardgrass plant response rating ([5]; 125 g ai/ha): 60; Plant response rating, Blackgrass [6]: 0; Ragweed plant response rating ([7]; 125 g ai/ha): 20; Plant response rating, Foxtail, Giant [8]: 0; Kochia plant response rating (kochia (Bassia scoparia) [9]; 125 g ai/ha): 20; Plant response rating, Barnyardgrass [11]: 10; Foxtail, Giant plant response rating ([14]; 125 g ai/ha): 60; Plant response rating, Galium [15]: 60
Cc1cc(C)c(N(S(=O)(=O)C(F)(F)F)S(=O)(=O)C(F)(F)F)cc1C1=NOC2(CCC3(CC2)OCCO3)C1 [Compound 136]	40	30	60	50	70	100	100	20	80	50	90	80	0	80	40	90	70	60	100	90	Plant response rating, Kochia (kochia (Bassia scoparia) [1]; visual injury approx. 10 days): 30; Plant response rating, Corn (corn (Zea mays); visual injury approx. 10 days): 0; Pigweed plant response rating ([3]; 125 g ai/ha): 20; Ryegrass, Italian plant response rating ([4]; 125 g ai/ha): 90; Barnyardgrass plant response rating ([5]; 125 g ai/ha): 90; Plant response rating, Blackgrass ([6]; visual injury approx. 10 days): 10; Ragweed plant response rating ([7]; 125 g ai/ha): 50; Plant response rating, Foxtail, Giant ([8]; visual injury approx. 10 days): 0; Kochia plant response rating (kochia (Bassia scoparia) [9]; 125 g ai/ha): 80; Plant response rating, Barnyardgrass ([11]; visual injury approx. 10 days): 20; Foxtail, Giant plant response rating ([14]; 125 g ai/ha): 100; Plant response rating, Galium ([15]; visual injury approx. 10 days): 70
Cc1cc(F)c(C(=O)N2CCCCC2)cc1N(S(=O)(=O)C(F)(F)F)S(=O)(=O)C(F)(F)F [Compound 212]	70	10	20	20	90	70	90	0	30	20	90	0	50	0	20	60	0	0	90	70	Plant response rating, Kochia (kochia (Bassia scoparia) [1]): 20; Plant response rating, Corn (corn (Zea mays)): 0; Plant response rating, Pigweed [3, 16]: 90; Plant response rating, Ryegrass, Italian [4, 16]: 30; Plant response rating, Barnyardgrass [5, 16]: 0; Plant response rating, Blackgrass [6]: 0; Plant response rating, Ragweed [7, 16]: 0; Plant response rating, Foxtail, Giant [8]: 0; Plant response rating, Kochia (kochia (Bassia scoparia) [9]; [16]): 30; Plant response rating, Barnyardgrass [11]: 0; Plant response rating, Foxtail, Giant [14, 16]: 20; Plant response rating, Galium [15]: 50

— patent US20230278972A1, “SUBSTITUTED HALOALKYL SULFONANILIDE HERBICIDES” (FMC Corporation, priority 2020, published 2023)
